Measured values from doi:10.1101/2024.08.25.609621 (bioRxiv, 2024).
Where two headings read alike, the source gives them in different places.

Target: SARS-CoV-2 NSP3 macrodomain (Mac1) (Severe acute respiratory syndrome coronavirus 2, UniProt P0DTD1)
Experiment: biochemical
Assay type: binding
Details: for Ki: read-out: SARS CoV-2 macrodomain HTRF assay: Ki; for Ligand efficiency (binding enery per heavy atom): from SARS CoV-2 macrodomain HTRF assay
[1] = Dose-response, SARS CoV-2 macrodomain HTRF assay, read-out: IC50
[2] = Single dose, 200 μM, mean of three technical replicates
[3] = Single dose, concentration 200 μM, read-out: Average % competition
[4] = preliminary screen, compound at 200 μM, mean of 3-4 technical replicates, read-out: % competition in HTRF assay
[5] = Single dose, concentration 200 μM, read-out: SARS CoV-2 macrodomain HTRF assay: Average % competition
[6] = dose-response, read-out: SARS CoV-2 macrodomain HTRF assay: IC50

## N#Cc1cnc(CSc2nc(-c3ccccc3)co2)nc1N [AVI-332]
  Average % competition: <10%

## O=C(O)c1ccc2c(c1)C(NC(=O)C1CCn3ncnc3C1)CCC2 (stereo not drawn) [AVI-333]
  Average % competition: 21%

## CC1CCCC1OC(=O)Cn1cnc2c1c(=O)n(C)c(=O)n2C (stereo not drawn) [AVI-335]
  Average % competition: <10%

## Cc1ccc(N2CCN(c3ncnc(-c4ccccc4)n3)CC2=O)cc1 [AVI-336]
  Average % competition: <10%

## CC(C(=O)NCc1c(C(=O)O)[nH]c2ccccc12)n1cncn1 (stereo not drawn) [AVI-337]
  Average % competition: 14%

## Nc1cc(N2CCC3CCCCC3C2)ncn1 (stereo not drawn) [AVI-339]
[1]
  IC50: > 1000 µM
[2]
  Average % competition: <10%

## CC1(c2ccc(F)cc2)CN(C(=O)c2cnc(N)nc2C(F)(F)F)C1 [AVI-340]
  Average % competition: 20%

## Cn1ccc2cc(NC(=O)C3CC(=O)NC4CCCCC43)ccc21 (stereo not drawn) [AVI-342]
  Average % competition: <10%

## Cc1nc(N)ncc1C(=O)NCC(O)Cc1ccc(Cl)cc1 (stereo not drawn) [AVI-343]
  Average % competition: <10%

## COc1ccc(-c2nccc(N3CCC(c4ccsc4)CC3)n2)cc1 [AVI-344]
  Average % competition: <10%

## O=c1[nH]c2ccccc2cc1CNc1nc(C2CC2)ns1 [AVI-346]
[1]
  IC50: > 1000 µM
[2]
  Average % competition: <10%

## Cc1ccc(CC(=O)N2CCSC23CC(C(=O)O)C3)cc1O (stereo not drawn) [AVI-347]
  Average % competition: <10%

## CC(NC(=O)c1ccc(N)nc1Cl)C(O)c1cccc(F)c1 (stereo not drawn) [AVI-349]
  Average % competition: 15%

## O[C@@]1(Cn2ccnn2)CCCN(c2ncnc3[nH]ccc23)C1 [AVI-608]
[3]
  inhibition at 200 µM: 8%
[4]
  inhibition at 200 µM: < 10%

## O[C@@H]1CNCC[C@H]1Nc1ncnc2[nH]ccc12 [AVI-613]
[3]
  inhibition at 200 µM: < 10%
[4]
  inhibition at 200 µM: < 10%

## CN(C)C[C@@]1(O)CCCN(c2ncnc3[nH]ccc23)C1 [AVI-614]
[3]
  inhibition at 200 µM: < 10%
[4]
  inhibition at 200 µM: < 10%

## O[C@H]1CNCC[C@@H]1Nc1ncnc2[nH]ccc12 [AVI-615]
[5]
  inhibition at 200 µM: < 10%
[4]
  inhibition at 200 µM: < 10%

## O=C(O)C(F)(F)F.OC1c2ccccc2CC1Nc1ncnc2[nH]ccc12 (stereo not drawn) [AVI-3634]
[3]
  inhibition at 200 µM: < 10%
[4]
  inhibition at 200 µM: < 10%

## O=C(O)C(F)(F)F.OCC(Nc1ncnc2[nH]ccc12)C1CCCO1 (stereo not drawn) [AVI-3645]
[3]
  inhibition at 200 µM: 54%
[4]
  inhibition at 200 µM: 54%

## O=C(O)C(F)(F)F.OC[C@@H](CCc1ccccc1)Nc1ncnc2[nH]ccc12 [AVI-3654]
[3]
  inhibition at 200 µM: 27%
[4]
  inhibition at 200 µM: 27%

## CC(C)CCC(CO)Nc1ncnc2[nH]ccc12.O=C(O)C(F)(F)F (stereo not drawn) [AVI-3668]
[3]
  inhibition at 200 µM: 38%
[4]
  inhibition at 200 µM: 38%

## O=[N+]([O-])c1ccc(C(O)C(CO)Nc2ncnc3[nH]ccc23)cc1 (stereo not drawn) [AVI-3672]
[3]
  inhibition at 200 µM: 43%
[4]
  inhibition at 200 µM: 43%

## O=C(O)C(F)(F)F.OCC(CC1CCOCC1)Nc1ncnc2[nH]ccc12 (stereo not drawn) [AVI-3676]
[3]
  inhibition at 200 µM: < 10%
[4]
  inhibition at 200 µM: < 10%

## O=C(O)C(F)(F)F.OCC(Nc1ncnc2[nH]ccc12)C(O)C1CCCCC1 (stereo not drawn) [AVI-3687]
[3]
  inhibition at 200 µM: 33%
[4]
  inhibition at 200 µM: 33%

## O=C(O)C(F)(F)F.OCC(Cc1cccc(F)c1)Nc1ncnc2[nH]ccc12 (stereo not drawn) [AVI-3706]
[3]
  inhibition at 200 µM: 77%
[4]
  inhibition at 200 µM: 77%

## O=C(O)C(F)(F)F.OCC1C2C=CC(C2)N1c1ncnc2[nH]ccc12 (stereo not drawn) [AVI-3712]
[5]
  inhibition at 200 µM: 55%
[4]
  inhibition at 200 µM: 55%

## CC(C)(C)C(O)CC(CO)Nc1ncnc2[nH]ccc12.O=C(O)C(F)(F)F (stereo not drawn) [AVI-3714]
[3]
  inhibition at 200 µM: < 10%
[4]
  inhibition at 200 µM: < 10%

## OCC1CCC2(CCOCC2)CN1c1ncnc2[nH]ccc12 (stereo not drawn) [AVI-4065]
[6]
  IC50: 430 µM
dose-response
  Ki: 400 µM
  Ligand efficiency (binding enery per heavy atom): 0.21

## CC1(C)CCC(O)(CNc2ncnc3[nH]ccc23)CC1 [AVI-4310]
[6]
  IC50: 76 µM
dose-response
  Ki: 71 µM
  Ligand efficiency (binding enery per heavy atom): 0.29

## OC1(CNc2ncnc3[nH]ccc23)CCC2(CC1)OCCO2 [AVI-4315]
[6]
  IC50: 210 µM
dose-response
  Ki: 200 µM
  Ligand efficiency (binding enery per heavy atom): 0.23

## CC(Nc1ncnc2[nH]ccc12)C1(O)CCCCC1 (stereo not drawn) [AVI-4321]
[6]
  IC50: 48 µM
dose-response
  Ki: 45 µM
  Ligand efficiency (binding enery per heavy atom): 0.32

## Cc1c[nH]c2ncnc(NCC3(O)CCC(C)(C)CC3)c12 [AVI-4330]
[6]
  IC50: 650 µM
dose-response
  Ki: 610 µM
  Ligand efficiency (binding enery per heavy atom): 0.21

## OCC1(Nc2ncnc3[nH]ccc23)COC1 [AVI-5649]
[3]
  inhibition at 200 µM: < 10%
[4]
  inhibition at 200 µM: < 10%

## Nc1cccc(CSC2CCc3ccccc32)n1 (stereo not drawn) [AVI-6015]
read-out: IC50
  IC50: > 1000 µM

## CC(O)C1CCN(c2cc(N3CCC(c4ccccc4)CC3C)ncn2)C1 (stereo not drawn) [AVI-6016]
read-out: IC50
  IC50: > 1000 µM

## Nc1ncnc(N2CCCCC3(CCC3)C2)c1Cl [AVI-6017]
read-out: IC50
  IC50: > 1000 µM

## Cc1ccc(C(=O)O)cc1NCc1ccc2nsnc2c1 [AVI-6018]
read-out: IC50
  IC50: > 1000 µM

## O=C1OC(CSC2CCC(O)C2)CN1C1CCCCC1 (stereo not drawn) [AVI-6019]
read-out: IC50
  IC50: > 1000 µM

## Cn1c(=O)[nH]c(=O)c2c1nc(Br)n2CC(=O)C1CCC(F)(F)CC1 [AVI-6020]
read-out: IC50
  IC50: > 1000 µM
